Source: patent US8372971B2, “Heterocyclic compounds and methods of use” (TargeGen, Inc., priority 2004, dated 2013)
Where a name gives a salt, the structure may show the parent alone.

What was measured:
[1] = target: T1, raf1 with inactive MEK1 (Raf1-MEK1) (Homo sapiens, UniProt P04049); assay: Raf1-MEK1 assay (KinaseGlo); format: biochemical; details: for IC50: Raf-Mek, 3 uM ATP, read-out: RAF-MEK assay (biochemical assay)
T1 construct: purchased Upstate, Lake Placid, N.Y

[2] = test system: p-MEK and p-ERK levels in HUVECs; assay: Western Blot, inhibition of MAPK pathway in cellular assay (Example 27); format: cell-based, human; details: at 5 uM, 50 ng/ml VEGF or FGF
Method: Western Blot: Early passage primary human umbilical vein endothelial cells (HUVECs) were maintained in EGM-2 containing SingleQuots (Cambrex, East Rutherford, N.J.), 10% FBS, 10 mM HEPES, and 50 μg/ml gentamicin. Prior to treatment of the cells with inhibitor, the HUVECs were starved for 18 h by replacing serum-containing complete media with scrum-free and SingleQuot-free media. The starved cells were pre-treated with inhibitors for 60 min at various concentrations (0-20 μM). Next the HUVECs were treated with 50 ng/ml VEGF or FGF (Peprotech, Rocky Hill, N.J.) for 6 min and the cells were immediately washed with ice-cold PBS. Cells were lysed with ice-cold RIPA buffer containing 100 mM Tris pH 7.5, 150 mM NaCl, 1 mM EDTA, 1% deoxycholate, 1% Triton X-100, 0.1% SDS, 2 mM PMSF, one Complete-Mini protease inhibitor tablet (Roche, Indianapolis, Ind.; 1 tablet/7 ml of lysis buffer) and the phophatase inhibitors NaF (500 mM) and orthovanadate (1 mM). The cells were scraped and lysates transferred and centrifuged at 15,000 g for 10 min. Supernatants were transferred to new tubes and protein concentration was quantitated using the BCA protein reagent (Pierce, Rockford, Ill.). Cell lysates containing 20 μg of total protein were separated by 10% SDS-PAGE, transferred to nitrocellulose, and blocked in 5% milk in TBST. Anti phospho-ERK Thr 202/Tyr 204 (Cell Signaling, Beverly, Mass.), anti-phospho-MEK Ser217/221 (Cell Signaling), and c-Raf (BD Biosciences Pharmingen, San Diego, Calif.) used as primary antibodies were detected with horseradish peroxidase-conjugated goat anti-mouse or rabbit secondary antibodies and bands were visualized using the SuperSignal West Pico chemiluminescence reagent system (Pierce) and Kodak X-ray film (Rochester, N.Y.).

[3] = target: T2, recombinant human raf1 (Homo sapiens, UniProt P04049); assay: Raf1 direct kinase assay (KinaseGlo); format: biochemical; details: printed in the RAF-MEK column
T2 construct: purchased Upstate, Lake Placid, N.Y
T2 sequence (P04049 whole entry): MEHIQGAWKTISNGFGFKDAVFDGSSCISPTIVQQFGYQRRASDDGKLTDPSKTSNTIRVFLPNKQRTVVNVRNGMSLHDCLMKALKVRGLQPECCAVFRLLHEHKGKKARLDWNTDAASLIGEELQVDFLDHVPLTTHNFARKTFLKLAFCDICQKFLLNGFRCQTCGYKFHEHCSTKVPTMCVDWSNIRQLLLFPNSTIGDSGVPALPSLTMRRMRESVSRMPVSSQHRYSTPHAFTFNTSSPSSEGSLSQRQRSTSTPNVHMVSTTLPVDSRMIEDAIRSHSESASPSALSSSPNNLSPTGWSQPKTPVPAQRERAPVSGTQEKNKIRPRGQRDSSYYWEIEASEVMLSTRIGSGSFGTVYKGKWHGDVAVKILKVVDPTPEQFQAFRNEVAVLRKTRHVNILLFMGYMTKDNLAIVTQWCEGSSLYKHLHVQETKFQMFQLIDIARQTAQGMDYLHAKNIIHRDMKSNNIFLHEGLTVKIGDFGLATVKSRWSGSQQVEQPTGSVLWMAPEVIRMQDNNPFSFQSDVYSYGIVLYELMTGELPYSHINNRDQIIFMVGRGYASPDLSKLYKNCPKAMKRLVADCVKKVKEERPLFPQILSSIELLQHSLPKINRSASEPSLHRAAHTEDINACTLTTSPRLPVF
Method: The ability of compounds of general structure (A) of the present invention to inhibit the kinase activity of Raf1 was evaluated using two methods: a direct and a Raf1-MEK1 assay. In the direct assay, kinase reactions were conducted in 96-well plates by combining recombinant human raf1 (29.4 U/well, Upstate, Lake Placid, N.Y.), ATP (3 μM), myelin basic protein substrate (MBP, 1 mg/ml, Upstate, Lake Placid, N.Y.), and test agents (at concentrations ranging from about 1 nM/l to about 10 μM), in the presence of kinase reaction buffer. […] After reacting for 60 minutes at 30° C., residual ATP was measured using a luciferase-based assay (KinaseGlo, Promega Corp.) as a measure of kinase activity. Data from four wells were then averaged and used to determine IC50 values for the test compounds (Prism software package, GraphPad Software, San Diego Calif.).

[4] = test system: HUVECs; assay: XTT cell viability assay (Example 28); format: cell-based; details: Homo sapiens, HUVEC, 24-48 hours, read-out: Inhibition of HUVEC cell prolifiration (IC50)
Method: XTT assay: HUVECs were seeded at 10,000 cells/well of a tissue culture treated 96-well plate treated with collagen type I and grown overnight in the complete EGM-2 media as described above. The following morning, the inhibitors were serial diluted with DMSO and added to the cells with a final DMSO concentration of 1%. After 24-48 hours cell viability was measured with an XTT assay (Sigma, St. Louis, Mo.). The cells were also photographed to compare morphological differences to the XTT trends observed. Determination of the IC50 values was performed with quantitative software (Prism software package, GraphPad Software, San Diego Calif.).

T1 sequence (P04049 306-648 limits assumed): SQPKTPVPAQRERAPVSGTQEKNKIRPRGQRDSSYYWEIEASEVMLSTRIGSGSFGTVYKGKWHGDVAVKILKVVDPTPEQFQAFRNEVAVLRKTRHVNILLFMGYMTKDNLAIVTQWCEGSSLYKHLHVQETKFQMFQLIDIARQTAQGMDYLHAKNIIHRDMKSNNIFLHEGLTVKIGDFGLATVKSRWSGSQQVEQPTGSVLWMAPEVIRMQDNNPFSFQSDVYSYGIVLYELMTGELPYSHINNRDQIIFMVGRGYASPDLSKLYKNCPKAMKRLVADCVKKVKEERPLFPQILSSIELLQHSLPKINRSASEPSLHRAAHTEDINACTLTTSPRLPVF

Row | SMILES | IC50 [1] [µM] | Western Blot [2] | RAF-MEK assay (biochemical assay), result in words [1] | IC50 [3] [µM] | window [1] [%] | IC50 [4] [µM]
1 | CNC(=O)c1cc(Oc2ccc3nc(NC(=O)c4ccc(Cl)c(C(F)(F)F)c4)nnc3c2)ccn1 [4-[3-(4-chloro-3-trifluoromethyl-benzoylamino)-benzo[1,2,4]triazin-7-yloxy]pyridine-2-carboxylic acid meth amide trifluoroacetate salt] | 10 to 50 | not active at 5 uM | – | – | – | –
2 | CNC(=O)c1cc(Oc2ccc3nc(NS(=O)(=O)c4cccc(C(F)(F)F)c4)nnc3c2)ccn1 [4-[3-(3-trifluoromethyl-benzenesulfonylamino)-benzo[1,2,4]triazin-7-yloxy]-pyridine-2-carboxylic acid methyl amide trifluoroacetate salt] | – | not active at 5 uM | flat | – | – | –
3 | CNC(=O)c1cc(Oc2ccc3nc(NC(=O)c4cccc(C(F)(F)F)c4Cl)nnc3c2)ccn1 [4-[3-(2-chloro-3-trifluoromethyl-benzoylamino)-benzo[1,2,4]triazin-7-yloxy]-pyridine-2-carboxylic acid methyl amide trifluoroacetate salt] | – | not active at 5 uM | flat | – | – | –
4 | CNC(=O)c1cc(Oc2ccc3nc(Nc4ccc(Cl)cc4)nnc3c2)ccn1 [4-[3-(4-chloro-phenylamino)-benzo[1,2,4]triazin-7-yloxy]-pyridine-2-carboxylic acid methylamide trifluoroacetate salt] | 10 to 50 | not active at 5 uM | – | 0.077 | 100 | –
5 | CNC(=O)c1cc(Oc2ccc3nc(NS(=O)(=O)c4cc(Cl)ccc4OC)nnc3c2)ccn1 [4-[3-chloro-6-methoxy-benzenesulfonylamino)-benzo[1,2,4]triazin-7-yloxy]-pyridine-2-carboxylic acid methyl amide trifluoroacetate salt] | > 50 | not active at 5 uM | – | – | – | –
6 | CNC(=O)c1cc(Oc2ccc3nc(Nc4ccc(Cl)c(C(F)(F)F)c4)nnc3c2)ccn1 [4-[3-(4-chloro-3-trifluoromethyl-phenylamino)-benzo[1,2,4]triazin-7-yloxy]-pyridine-2-carboxylic acid methylamide trifluoroacetate salt] | 0.0116 | not active at 5 uM | – | – | ~20 | –
7 | CNC(=O)c1cc(Oc2ccc3nc(NC(=O)c4cc(C(F)(F)F)cc(Cl)c4F)nnc3c2)ccn1 [4-[2-fluoro-3-chloro-5-trifluoromethyl-benzoylamino)-benzo[1,2,4]triazin-7-yloxy]-pyridine-2-carboxylic acid methyl amide trifluoroacetate salt] | 0.723 | not active at 5 uM | – | – | ~30 | –
8 | CNC(=O)c1cc(Oc2ccc3nc(NC(=O)c4cccc(C(F)(F)F)c4)nnc3c2)ccn1 [4-[3-(3-trifluoromethyl-benzoylamino)-benzo[1,2,4]triazin-7-yloxy]-pyridine-2-carboxylic acid methyl amide trifluoroacetate salt] | 0.655 | not active at 5 uM | – | – | ~70 | –
9 | CNC(=O)c1cc(Oc2ccc3nc(NS(=O)(=O)c4ccccc4C(F)(F)F)nnc3c2)ccn1 [4-[2-(trifluoromethyl-benzenesulfonylamino)-benzo[1,2,4]triazin-7-yloxy]-pyridine-2-carboxylic acid methyl amide trifluoroacetate salt] | – | not active at 5 uM | flat | – | – | –
10 | O=C(Nc1nnc2cc(Oc3ccncc3)ccc2n1)c1ccc(OC(F)(F)F)cc1 [N-[7-(Pyridin-4-yloxy)-benzo[1,2,4]triazin-3-yl]-4-trifluoromethoxy-benzamide] | – | not active at 5 uM | – | – | – | 7.38
11 | CNC(=O)c1cc(Oc2ccc3nc(NS(=O)(=O)c4ccc(Cl)s4)nnc3c2)ccn1 [4-[3-(5-chloro-thiophene-2-sulfonylamino)-benzo[1,2,4]triazin-7-yloxy]-pyridine-2-carboxylic acid methyl amide trifluoroacetate salt] | > 50 | not active at 5 uM | – | – | – | –
12 | CNC(=O)c1cc(Oc2ccc3nc(NC(=O)c4ccc(Cl)cc4Cl)nnc3c2)ccn1 [4-[2,4-dichloro-benzoylamino)-benzo[1,2,4]triazin-7-yloxy]-pyridine-2-carboxylic acid methyl amide trifluoroacetate salt] | – | not active at 5 uM | flat | – | – | –
13 | O=C(Nc1nnc2cc(Oc3ccnc(C(=O)NCCN4CCOCC4)c3)ccc2n1)c1ccc(OC(F)(F)F)cc1 [4-[3-(4-Trifluoromethoxy-benzoylamino)-benzo[1,2,4]triazin-7-yloxy]-pyridine-2-carboxylic acid (2-morpholin-4-yl-ethyl)-amide] | – | active at 5 uM | – | – | – | 1.48
14 | CNC(=O)c1cc(Oc2ccc3nc(NC(=O)c4cccc(Cl)c4)nnc3c2)ccn1 [trifluoroacetate salt] | – | not active at 5 uM | flat | – | – | –
